Results as given in patent EP0316690A2, “Agent for the treatment of ischemic heart diseases” (Dr. Karl Thomae GmbH, priority 1987, dated 1989).

Legend:
[1] = target: T1, frequenzbeeinflussende M-Rezeptoren (Rattus norvegicus, UniProt P10980); assay: Isolated perfused Langendorff heart: antagonism of the negative chronotropic carbachol effect on heart rate (HR/HF); parameters: species or system Wistar Ratten; conditions: isolated spontaneously beating rat heart, agonist Carbachol bolus 10⁻⁶ bis 10⁻²M, antagonist in perfusate; read-out: pA₂-Werte Herzfrequenz-Effekt HR (converted)
T1 construct: danach das Herz entnommen; from tissue; host or cells: isolated perfused Langendorff heart of male Wistar rats
T1 sequence (P10980 1-466): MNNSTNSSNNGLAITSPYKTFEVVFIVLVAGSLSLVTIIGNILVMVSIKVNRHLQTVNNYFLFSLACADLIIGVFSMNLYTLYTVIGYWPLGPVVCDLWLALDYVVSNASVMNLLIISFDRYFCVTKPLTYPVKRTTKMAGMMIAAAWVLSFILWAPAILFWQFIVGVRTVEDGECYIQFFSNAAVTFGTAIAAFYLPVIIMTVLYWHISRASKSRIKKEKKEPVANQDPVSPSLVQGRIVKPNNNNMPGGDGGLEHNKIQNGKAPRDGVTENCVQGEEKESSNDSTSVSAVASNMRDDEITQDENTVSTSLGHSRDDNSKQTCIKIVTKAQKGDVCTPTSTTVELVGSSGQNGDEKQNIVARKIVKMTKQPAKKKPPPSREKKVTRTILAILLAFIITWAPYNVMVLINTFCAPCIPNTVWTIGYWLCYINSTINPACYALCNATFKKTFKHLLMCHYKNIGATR
Experimental: (§1) Meßparameter sind Herzfrequenz und Coronarfluß.
(§2) Männliche Wistar Ratten mit einem Körpergewicht zwischen 300 und 350 g wurden mit Pentobarbital (70 mg/kg i.p.) anaesthe siert. […] Die Herzen wurden über die Aorta mit Krebs-Henseleit-Puffer (KHB) retograd bei einem konstanten Druck von 70 mm Hg perfundiert. Die Zusammensetzung des KHB betrug in mM: Kochsalz 114, Kaliumchlorid 4,7, Natriumbicarbonat 23,6, Kaliumdihydrogenphosphat 1,2, Magnesiumsulfat 1,1, Calziumchlorid 2,5. 11 mM Glucose wurden als Substrat beigefügt. Die Herzfrequenz (HR) wurde durch einen Tachographen (IFD, Mülheim) gemessen, der Coronarfluß (CF) wurde mittels eines elektromagnetischen Flowmeters (IFD, Mülheim) in Verbindung mit einer Sonde in dem zuführenden Teil der Aorta bestimmt.
(§3) Nach einer 15-minütigen Stabilisierungsphase in allen Experimenten wurde die erste Dosis-Wirkungs-Kurve erstellt. Dies geschah durch die Gabe von dem Fluß angepaßten Bolus-Injektionen (0,01 ml/10 ml CF) mit ansteigenden Dosierungen von Carbachol (10⁻⁶ bis 10⁻²M). Danach wurde die niedrigste Dosis des Antagonisten dem Perfusat beigegeben und die Dosis-Wirkungs-Kurve erneut aufgenommen. Darauffolgend gab man eine höhere Dosis des Antagonisten zu und es wurde der Einfluß von Carbachol auf den Coronarfluß (CF) und die Herzfrequenz (HF) erneut durch die Aufnahme von Dosis-Wirkungs-Kurven quantifiziert.

[2] = test system: glattmuskuläre coronare Muscarinrezeptoren; assay: Isolated perfused Langendorff heart: antagonism of the carbachol effect on coronary flow (CF); parameters: species or system Wistar Ratten; conditions: for Coronarselektivität (Affinität für coronare vs. frequenzbeeinflussende M-Rezeptoren): comparison of CF and HR effects in the isolated rat heart; for pA₂-Werte Coronarflußeffekt CF: isolated rat heart, agonist Carbachol bolus 10⁻⁶ bis 10⁻²M, antagonist in perfusate, constant pressure 70 mm Hg
Experimental: as §1, §2, §3

Structure (SMILES) | Kb [1] [µM] | Coronarselektivität (Affinität für coronare vs. frequenzbeeinflussende M-Rezeptoren) [2] | pA₂-Werte Coronarflußeffekt CF [2] | Kb ([2]; read-out: pA₂-Werte Coronarflußeffekt CF (converted)) [µM]
CN1CCC(CC(=O)N2c3ccccc3C(=O)Nc3cccc(Cl)c32)CC1 (racemic) [Substanz I, 6-Chlor-5,10-dihydro-5-[(1-methyl-4-piperidinyl)acetyl]-11H-dibenzo[b,e][1,4]diazepin-11-on] | 0.0501 | höhere Affinität für coronare als für frequenzbeeinflussende M-Rezeptoren | 7,9 ± 0,2 | –
CN1C2CCC1CC(OC(=O)C(CO)c1ccccc1)C2 (racemic) [Atropin, reference compound] | – | – | – | 0.000631
CN1CCC(CC(=O)N2c3ccccc3C(=O)Nc3cccc(Cl)c32)CC1 (single isomer, unassigned) [Substanz II, (+)-6-Chlor-5,10-dihydro-5-[(1-methyl-4-piperidinyl)acetyl]-11H-dibenzo[b,e][1,4]diazepin-11-on] | 0.0316 | höhere Affinität für coronare als für frequenzbeeinflussende M-Rezeptoren | 8,2 ± 0,1 | –
